Measured values taken from patent US20230413818A1, “FEED AND METHODS FOR CONTROLLING TICK INFESTATIONS IN A MAMMAL” (In the Bowl Animal Health, Inc., priority 2021, published 2023).

What was measured:
[1] = Average plasma concentration of spinosad in dogs after oral dosing; type: in vivo
From the text: (§1) Methods: A pool of 40 dogs are to be screened before inclusion in this example by preliminarily infesting them with ˜100 unfed adult Ctenocephalidesfelis in order to produce a pool of dogs that can suitably sustain a reliable infestation rate of approximately 50% of live fleas over a 48-hour period. The dogs with the highest live flea counts are to be randomly allocated to 2 treatment groups (6 dogs per group) based on their pre-treatment flea counts from experimental infestations. The first treatment group is to be the control group and the second treatment group to be the test group.
(§2) The dogs are to be housed individually during the study period and are to be fed a commercial dry dog food ration with ad libitum access to water.
(§3) Each dog in the test group is to receive by mouth a liquid formulation of spinosyn preferably spinosad. The dosage of 2.5 mg/kg of the dog's weight is to be administered to the dogs on each of days 0-29 and the dosage of 5 mg/kg of the dog's weight is to be administered on days 30-50.
Dogs in the control group are not to receive spinosyn or any other tick control treatment. Each dog in the test group is to be offered its daily ration (dry food) and the individual doses of liquid formulation are to be administered after the individual dog has eaten at least 25% of its total daily ration. After receiving the dose of spinosyn the dogs are to be allowed to continue eating. This mimics incorporating the spinosyn in feed. Each dog in the test group and the control group is to be experimentally infested with 50 unfed adult ticks (ca. 50% male/50% female) on test days 12, 19, 28, 35, 42, 49 and 56. Comb counts for attached live and moribund adult ticks are to be conducted on days 14, 21, 30, 37, 44, 51 and 58. Note that the dosage is to be increased at day 30 and the final dose is to be given on day 50.
Using the same study method as described above, blood is to be drawn at 72, 120, 168, 336, 504, 720 and 888 hours after the initial dose of spinosyn is administered. The average concentration of spinosyn in the blood for different dosage levels can then be determined.
Referring now to TABLE 1 and FIG. 2. Sample results are shown for the average plasma concentration of spinosad in a canine's blood (ng/mL) versus time in hours for different dosage levels of spinosad. By way of comparison, the average plasma concentration of spinosyn for a single-dose administration to be given monthly (squares) is shown with the average plasma concentration of spinosyn for a substantially daily dose of 2.5 mg/kg/day or 5.0 mg/kg/day (circles). The daily dose is increased from 2.5 mg/kg/day to 5.0 mg/kg/day at about hour 700 (around day 30).

Rhipicephalus sanguineus = assay: Efficacy of spinosyn administered per os to dogs for treatment and control of Rhipicephalus sanguineus (tick comb counts); type: in vivo; conditions: oral daily dose increased from 2.5 to 5.0 mg/kg/day around day 30, days 37-50, FIG. 1
From the text: Efficacy of Spinosyn Administered per os, i.e. by Mouth, to Dogs for the Treatment and Control of Rhipicephalus sanguineus.
as §1, §2, §3
Dogs in the control group are not to receive spinosyn or any other tick control treatment. […]
Results: Referring now to FIG. 1. […] Percent Efficacy is determined according to the formula [AM ticks CONTROL−AM ticks TREATED]/AM ticks Control. […]

Substance: spinosad
- Average Plasma Concentration ([1]; oral daily 2.5-5.0 mg/kg/day spinosad (2.5 mg/kg/day phase), 72 hours): 221.50 ng/mL
- Average Plasma Concentration ([1]; oral daily 2.5-5.0 mg/kg/day spinosad (2.5 mg/kg/day phase), 120 hours): 327.07 ng/mL
- Average Plasma Concentration ([1]; oral daily 2.5-5.0 mg/kg/day spinosad (2.5 mg/kg/day phase), 168 hours): 455.78 ng/mL
- Average Plasma Concentration ([1]; oral daily 2.5-5.0 mg/kg/day spinosad (2.5 mg/kg/day phase), 336 hours): 566.25 ng/mL
- Average Plasma Concentration ([1]; oral daily 2.5-5.0 mg/kg/day spinosad (2.5 mg/kg/day phase), 504 hours): 668.77 ng/mL
- Average Plasma Concentration ([1]; oral daily 2.5-5.0 mg/kg/day spinosad (5.0 mg/kg/day phase), 888 hours): 635.72 ng/mL
- Average Plasma Concentration ([1]; oral daily 2.5-5.0 mg/kg/day spinosad (5.0 mg/kg/day phase), 1056 hours): 967.33 ng/mL
- Average Plasma Concentration ([1]; oral daily 2.5-5.0 mg/kg/day spinosad (after final dose on day 50), 1392 hours): 761.45 ng/mL
- Average Plasma Concentration ([1]; oral daily 2.5-5.0 mg/kg/day spinosad (dose raised to 5.0 mg/kg/day at about hour 700), 720 hours): 533.12 ng/mL
- Percent Efficacy (reduction in attached live and moribund adult tick counts vs control) (Rhipicephalus sanguineus): increase in efficacy is clear
